Key:
Type in all cases: in vivo
rice (Oryza sativa) = test: Test B flooded paddy test plant response
In short: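 2-leaf plants; pots flooded 3 cm above soil; compound added to paddy water; depth maintained. Greenhouse 13–15 d. Visual rating vs controls, 0 (no effect) to 100 (complete control); dash = no result.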

[1] = tested on: morningglory (Ipomoea coccinea); test: Test B pre-/postemergence plant response; details: for Morningglory plant response rating: 8 g ai/ha
In short: (§1)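 Seeds were sown and sprayed preemergence, while plants at 2 to 18 cm (1- to 4-leaf stage) got postemergence sprays. Compounds were formulated in a non-phytotoxic solvent mixture with surfactant. After 13 to 15 days in a greenhouse, injury was rated visually against untreated controls, 0 (no effect) to 100 (complete control).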

[2] = tested on: lambsquarters (Chenopodium album); test: Test B pre-/postemergence plant response; details: for Lambsquarters plant response rating: 8 g ai/ha
In short: as §1

[3] = tested on: Italian ryegrass (Lolium multiflorum); test: Test B pre-/postemergence plant response; details: for Ryegrass, Italian plant response rating: 8 g ai/ha
In short: as §1

soybean (Glycine max) = test: Test B pre-/postemergence plant response; details: for Soybean plant response rating: 8 g ai/ha
In short: as §1

[4] = tested on: pigweed (Amaranthus retroflexus); test: Test B pre-/postemergence plant response; details: for Pigweed plant response rating: 8 g ai/ha
In short: as §1

[5] = tested on: giant foxtail (Setaria faberii); test: Test B pre-/postemergence plant response; details: for Foxtail, Giant plant response rating: 8 g ai/ha
In short: as §1

kochia (Kochia scoparia) = test: Test B pre-/postemergence plant response; details: for Kochia plant response rating: 8 g ai/ha
In short: as §1

[6] = tested on: catchweed bedstraw (Galium aparine); test: Test B pre-/postemergence plant response; details: Preemergence
In short: as §1

[7] = tested on: large crabgrass (Digitaria sanguinalis); test: Test B pre-/postemergence plant response; details: for Crabgrass, Large plant response rating: 8 g ai/ha
In short: as §1

[8] = tested on: bermudagrass (Cynodon dactylon); test: Test B pre-/postemergence plant response; details: for Bermudagrass plant response rating: 8 g ai/ha
In short: as §1

[9] = tested on: johnsongrass (Sorghum halepense); test: Test B pre-/postemergence plant response; details: for Johnsongrass plant response rating: 8 g ai/ha
In short: as §1

[10] = tested on: velvetleaf (Abutilon theophrasti); test: Test B pre-/postemergence plant response; details: for Velvetleaf plant response rating: 8 g ai/ha
In short: as §1

[11] = tested on: goosegrass (Eleusine indica); test: Test B pre-/postemergence plant response; details: for Goosegrass plant response rating: 8 g ai/ha
In short: as §1

[12] = Postemergence, 16 g ai/ha, scale 0 to 100
[13] = Postemergence, 31 g ai/ha, scale 0 to 100, 0 no effect, 100 complete control
[14] = Postemergence, 62 g ai/ha, scale 0 to 100, 0 no effect, 100 complete control
[15] = Preemergence, 16 g ai/ha, scale 0 to 100 (0 no effect, 100 complete control)
[16] = Preemergence, 31 g ai/ha, 0 to 100 scale, 0 no effect, 100 complete control
[17] = Preemergence, 62 g ai/ha, scale 0 to 100

In the case of `Cc1cc(-c2ccc(Cl)cc2)nn1-c1c(OC(=O)c2ccccc2Cl)cnn(C)c1=O` [Compound 38], the “Plant response rating, Rice” value (rice (Oryza sativa); Flood (flooded paddy test), 62 g ai/ha, scale 0 to 100, 0 no effect, 100 complete control) is reported as 75, the “Plant response rating, Rice” value (rice (Oryza sativa); Flood (flooded paddy test), 125 g ai/ha, scale 0 to 100, 0 no effect, 100 complete control) is reported as 75 and the “Plant response rating, Rice” value (rice (Oryza sativa); Flood (flooded paddy test), 250 g ai/ha, scale 0 to 100, 0 no effect, 100 complete control) is reported as 85. The “Plant response rating, Rice” value (rice (Oryza sativa); Flood, 31 g ai/ha, scale 0 to 100) was 0, the “Morningglory plant response rating” value ([1]; postemergence, 0-100 scale) was 0 and the “Plant response rating, Morningglory” value [1, 12] was 0. For the same compound, the “Plant response rating, Morningglory” value [1, 13] was 0, the “Plant response rating, Morningglory” value [1, 14] was 0 and the “Plant response rating, Morningglory” value [1, 15] was 0. The “Plant response rating, Morningglory” value [1, 16] was 0, the “Plant response rating, Morningglory” value [1, 17] was 0 and the “Morningglory plant response rating” value ([1]; Preemergence, scale 0 to 100) was 0. The “Lambsquarters plant response rating” value ([2]; postemergence, 0-100 scale) was 0, the “Plant response rating, Lambsquarters” value [2, 12] was 0 and the “Plant response rating, Lambsquarters” value [2, 13] was 0. The “Plant response rating, Lambsquarters” value [2, 14] was 0, the “Plant response rating, Lambsquarters” value [2, 15] was 0 and the “Plant response rating, Lambsquarters” value [2, 16] was 0. The “Plant response rating, Lambsquarters” value [2, 17] was 0, the “Lambsquarters plant response rating” value ([2]; Preemergence, scale 0 to 100) was 0 and the “Ryegrass, Italian plant response rating” value ([3]; postemergence, 0-100 scale) was 10. The “Plant response rating, Ryegrass, Italian” value [3, 12] was 85, the “Plant response rating, Ryegrass, Italian” value [3, 13] was 85 and the “Plant response rating, Ryegrass, Italian” value [3, 14] was 98. For the same compound, the “Plant response rating, Ryegrass, Italian” value [3, 15] was 80, the “Plant response rating, Ryegrass, Italian” value [3, 16] was 95 and the “Plant response rating, Ryegrass, Italian” value [3, 17] was 100. The “Ryegrass, Italian plant response rating” value ([3]; Preemergence, scale 0 to 100) was 30, the “Soybean plant response rating” value (soybean (Glycine max); postemergence, 0-100 scale) was 0 and the “Plant response rating, Soybean” value (soybean (Glycine max); [12]) was 0. For the same compound, the “Plant response rating, Soybean” value (soybean (Glycine max); [14]) was 0, the “Plant response rating, Soybean” value (soybean (Glycine max); [15]) was 0 and the “Plant response rating, Soybean” value (soybean (Glycine max); [16]) was 0. The “Plant response rating, Soybean” value (soybean (Glycine max); [17]) was 0, the “Soybean plant response rating” value (soybean (Glycine max); Preemergence, scale 0 to 100) was 0 and the “Pigweed plant response rating” value ([4]; postemergence, 0-100 scale) was 0. The “Plant response rating, Pigweed” value [4, 12] was 0, the “Plant response rating, Pigweed” value [4, 13] was 0 and the “Plant response rating, Pigweed” value [4, 14] was 0. For the same compound, the “Plant response rating, Pigweed” value [4, 15] was 0, the “Plant response rating, Pigweed” value [4, 16] was 0 and the “Plant response rating, Pigweed” value [4, 17] was 0. The “Pigweed plant response rating” value ([4]; Preemergence, scale 0 to 100) was 0, the “Foxtail, Giant plant response rating” value ([5]; postemergence, 0-100 scale) was 0 and the “Plant response rating, Foxtail, Giant” value [5, 12] was 20. For the same compound, the “Plant response rating, Foxtail, Giant” value [5, 13] was 50, the “Plant response rating, Foxtail, Giant” value [5, 14] was 100 and the “Plant response rating, Foxtail, Giant” value [5, 15] was 98. For the same compound, the “Plant response rating, Foxtail, Giant” value [5, 16] was 100, the “Plant response rating, Foxtail, Giant” value [5, 17] was 100 and the “Foxtail, Giant plant response rating” value ([5]; Preemergence, scale 0 to 100) was 45. The “Kochia plant response rating” value (kochia (Kochia scoparia); postemergence, 0-100 scale) was 0, the “Plant response rating, Kochia” value (kochia (Kochia scoparia); [12]) was 0 and the “Plant response rating, Kochia” value (kochia (Kochia scoparia); [13]) was 0. For the same compound, the “Plant response rating, Kochia” value (kochia (Kochia scoparia); [14]) was 0, the “Plant response rating, Kochia” value (kochia (Kochia scoparia); [15]) was 0 and the “Kochia plant response rating” value (kochia (Kochia scoparia); Preemergence, scale 0 to 100) was 0. The “Plant response rating, Galium” value ([6]; 16 g ai/ha, scale 0 to 100 (0 no effect, 100 complete control)) was 0, the “Plant response rating, Galium” value ([6]; 31 g ai/ha, 0 to 100 scale, 0 no effect, 100 complete control) was 0 and the “Plant response rating, Galium” value ([6]; 62 g ai/ha, scale 0 to 100) was 0. For the same compound, the “Galium plant response rating” value ([6]; 8 g ai/ha, scale 0 to 100) was 0, the “Crabgrass, Large plant response rating” value ([7]; postemergence, 0-100 scale) was 70 and the “Plant response rating, Crabgrass, Large” value [7, 12] was 70. For the same compound, the “Plant response rating, Crabgrass, Large” value [7, 13] was 90, the “Plant response rating, Crabgrass, Large” value [7, 14] was 100 and the “Plant response rating, Crabgrass, Large” value [7, 15] was 98. For the same compound, the “Plant response rating, Crabgrass, Large” value [7, 16] was 100, the “Plant response rating, Crabgrass, Large” value [7, 17] was 100 and the “Crabgrass, Large plant response rating” value ([7]; Preemergence, scale 0 to 100) was 45. For the same compound, the “Bermudagrass plant response rating” value ([8]; postemergence, 0-100 scale) was 40, the “Plant response rating, Bermudagrass” value [8, 12] was 85 and the “Plant response rating, Bermudagrass” value [8, 13] was 100. The “Plant response rating, Bermudagrass” value [8, 14] was 100, the “Bermudagrass plant response rating” value ([8]; Preemergence, scale 0 to 100 (0 no effect, 100 complete control)) was 60 and the “Plant response rating, Bermudagrass” value [8, 15] was 100. For the same compound, the “Plant response rating, Bermudagrass” value [8, 16] was 100, the “Plant response rating, Bermudagrass” value [8, 17] was 100 and the “Johnsongrass plant response rating” value ([9]; postemergence, 0-100 scale) was 60. The “Plant response rating, Johnsongrass” value [9, 12] was 65, the “Plant response rating, Johnsongrass” value [9, 13] was 90 and the “Plant response rating, Johnsongrass” value [9, 14] was 100. For the same compound, the “Plant response rating, Johnsongrass” value [9, 16] was 70, the “Plant response rating, Johnsongrass” value [9, 17] was 80 and the “Johnsongrass plant response rating” value ([9]; Preemergence, scale 0 to 100) was 0. For the same compound, the “Velvetleaf plant response rating” value ([10]; postemergence, 0-100 scale) was 0, the “Plant response rating, Velvetleaf” value [10, 12] was 0 and the “Plant response rating, Velvetleaf” value [10, 14] was 0. For the same compound, the “Plant response rating, Velvetleaf” value [10, 15] was 0, the “Plant response rating, Velvetleaf” value [10, 16] was 0 and the “Plant response rating, Velvetleaf” value [10, 17] was 0. For the same compound, the “Velvetleaf plant response rating” value ([10]; Preemergence, scale 0 to 100) was 0, the “Goosegrass plant response rating” value ([11]; postemergence, 0-100 scale) was 100 and the “Plant response rating, Goosegrass” value [11, 12] was 100. For the same compound, the “Plant response rating, Goosegrass” value [11, 13] was 100, the “Plant response rating, Goosegrass” value [11, 14] was 100 and the “Plant response rating, Goosegrass” value [11, 15] was 85. For the same compound, the “Plant response rating, Goosegrass” value [11, 16] was 95, the “Plant response rating, Goosegrass” value [11, 17] was 95 and the “Goosegrass plant response rating” value ([11]; Preemergence, scale 0 to 100) was 45.
